In US20120270237A9, “METHODS FOR THE IDENTIFICATION OF KINASE INTERACTING MOLECULES AND FOR THE PURIFICATION OF KINASE PROTEINS” (Cellzone AG, priority 2009, published 2012):

Key:
Experiment in all cases: Kinobeads competition binding, L-363 cell lysate
Parameters in all cases: endogenous in cells
Conditions in all cases: 10 μM free compound, L-363 lysate
ARG = ARG (Homo sapiens, UniProt P42684)
Method in brief: (§1)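 MG132-pretreated (20 μM, 3 h) L-363 lysate; 10 μM cpd vs DMSO; immobilized-cpd bead capture; SDS-PAGE, tryptic digest, iTRAQ 114/117; LC-MS/MS reporter quant.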

CDK2 = CDK2 (Homo sapiens, UniProt P24941)
Method in brief: as §1

CDK5 = CDK5 (Homo sapiens, UniProt Q00535)
Method in brief: as §1

CK2a2 = CK2a2 (Homo sapiens, UniProt P19784)
Method in brief: as §1

DNAPK = DNAPK (Homo sapiens, UniProt P78527)
Method in brief: as §1

Erk1 = Erk1 (Homo sapiens, UniProt P27361)
Method in brief: as §1

Erk2 = Erk2 (Homo sapiens, UniProt P28482)
Method in brief: as §1

FER = FER (Homo sapiens, UniProt P16591)
Method in brief: as §1

GAK = target: T1, GAK (Homo sapiens, UniProt O14976)
T1 sequence (O14976 1-1311): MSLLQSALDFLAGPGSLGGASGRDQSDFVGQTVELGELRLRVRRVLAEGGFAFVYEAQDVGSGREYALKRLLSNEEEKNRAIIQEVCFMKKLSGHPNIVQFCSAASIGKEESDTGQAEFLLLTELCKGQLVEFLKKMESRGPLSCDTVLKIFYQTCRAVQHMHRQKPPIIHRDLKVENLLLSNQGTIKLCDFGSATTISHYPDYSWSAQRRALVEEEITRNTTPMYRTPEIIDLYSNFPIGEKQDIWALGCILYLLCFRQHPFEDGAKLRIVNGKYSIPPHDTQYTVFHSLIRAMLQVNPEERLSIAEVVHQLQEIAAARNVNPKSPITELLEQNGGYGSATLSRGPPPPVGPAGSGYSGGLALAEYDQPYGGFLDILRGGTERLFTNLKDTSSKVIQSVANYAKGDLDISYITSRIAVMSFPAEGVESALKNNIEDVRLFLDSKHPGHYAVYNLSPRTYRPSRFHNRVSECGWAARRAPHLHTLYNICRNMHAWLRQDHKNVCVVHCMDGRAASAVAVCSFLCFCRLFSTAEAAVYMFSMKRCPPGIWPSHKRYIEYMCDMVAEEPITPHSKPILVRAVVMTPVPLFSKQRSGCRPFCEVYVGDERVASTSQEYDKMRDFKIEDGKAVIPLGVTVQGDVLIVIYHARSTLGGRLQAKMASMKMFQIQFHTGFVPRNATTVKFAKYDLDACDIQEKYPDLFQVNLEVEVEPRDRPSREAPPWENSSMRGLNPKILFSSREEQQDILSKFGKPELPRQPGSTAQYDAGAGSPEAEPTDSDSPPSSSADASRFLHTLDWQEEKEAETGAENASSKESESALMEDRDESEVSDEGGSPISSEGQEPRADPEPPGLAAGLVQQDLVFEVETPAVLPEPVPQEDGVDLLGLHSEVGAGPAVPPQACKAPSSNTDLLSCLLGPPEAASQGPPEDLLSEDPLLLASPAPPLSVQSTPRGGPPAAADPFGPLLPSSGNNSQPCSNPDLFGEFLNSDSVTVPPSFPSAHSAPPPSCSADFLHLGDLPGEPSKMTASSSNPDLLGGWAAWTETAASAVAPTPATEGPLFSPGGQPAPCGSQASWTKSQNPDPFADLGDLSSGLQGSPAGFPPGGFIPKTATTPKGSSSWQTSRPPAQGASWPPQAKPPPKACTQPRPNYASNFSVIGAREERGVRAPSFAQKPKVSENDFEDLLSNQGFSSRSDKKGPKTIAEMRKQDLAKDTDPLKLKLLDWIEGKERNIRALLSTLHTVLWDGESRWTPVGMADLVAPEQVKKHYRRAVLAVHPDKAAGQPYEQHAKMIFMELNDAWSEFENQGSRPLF
Method in brief: as §1

GSK3A = GSK3A (Homo sapiens, UniProt P49840)
Method in brief: as §1

HPK1 = HPK1 (Homo sapiens, UniProt Q92918)
Method in brief: as §1

PIP5K2C = target: T2, PIP5K2C (Homo sapiens, UniProt Q8TBX8)
T2 sequence (Q8TBX8 1-421): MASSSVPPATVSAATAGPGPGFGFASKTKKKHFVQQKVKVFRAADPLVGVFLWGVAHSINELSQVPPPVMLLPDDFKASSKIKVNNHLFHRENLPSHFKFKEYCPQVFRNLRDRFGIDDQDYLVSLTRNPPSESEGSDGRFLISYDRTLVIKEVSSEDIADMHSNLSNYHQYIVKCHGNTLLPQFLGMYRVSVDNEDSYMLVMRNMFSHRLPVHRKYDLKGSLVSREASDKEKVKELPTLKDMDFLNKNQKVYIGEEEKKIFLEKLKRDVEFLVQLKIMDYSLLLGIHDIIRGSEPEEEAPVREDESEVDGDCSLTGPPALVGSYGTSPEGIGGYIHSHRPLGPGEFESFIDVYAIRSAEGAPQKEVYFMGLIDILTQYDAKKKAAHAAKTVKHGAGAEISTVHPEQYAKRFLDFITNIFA
Method in brief: as §1

CS(=O)(=O)Nc1ccccc1Nc1nc(Nc2cccc(OCCN)c2)ncc1Cl [CZC31326, N-(2-(2-(3-(2-aminoethoxy)phenylamino)-5-chloropyrimidin-4-ylamino)phenyl)methanesulfonamide]
inhibition at 10 µM (ARG): 95.8%
Competition % (CDK2): 95.2%
inhibition at 10 µM (CDK5): 96.4%
inhibition at 10 µM (CK2a2): 97.5%
inhibition at 10 µM (DNAPK): 84%
inhibition at 10 µM (Erk1): 83.2%
inhibition at 10 µM (Erk2): 74.4%
inhibition at 10 µM (FER): 97.8%
inhibition at 10 µM (GAK): 98.2%
inhibition at 10 µM (GSK3A): 96.9%
inhibition at 10 µM (HPK1): 98%
inhibition at 10 µM (PIP5K2C): 92%
